# Test results taken from patent US9695155B2, “Herbicidal substituted pyrimidinyloxy benzene compounds” (E. I. DU PONT DE NEMOURS AND COMPANY, priority 2013, dated 2017).
# What was measured:
# wild oat = assay: Test C postemergence; assay type: in vivo, Avena fatua; conditions: for pest or weed control at 16 g/ha / pest or weed control at 125 g/ha / pest or weed control at 62 g/ha: Avena fatua, post-emergence; for pest or weed control at 16 g/ha: read-out: Plant response rating (0 to 100), Oat, Wild; for pest or weed control at 125 g/ha / pest or weed control at 62 g/ha: read-out: Plant response rating, Oat, Wild
# Summary of the method: (§1)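 Sown in loam/sand → sprayed pre-emergence; or grown to 1–4 leaves in peat mix → sprayed post-emergence. Same solvent/surfactant formulation both ways. Greenhouse 13–15 d. Score 0–100 visual.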
# giant foxtail [1] = assay: Test A preemergence; assay type: in vivo, Setaria faberii; conditions: for Foxtail, Giant plant response rating: 500 g ai/ha
# Summary of the method: (§2)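 Compounds in non-phytotoxic solvent with surfactant applied as soil spray preemergence, or postemergence to plants 2-10 cm at one- to two-leaf stage, in loam/sand. After approximately 10 days in greenhouse, injury rated visually versus untreated controls, 0 (no effect) to 100 (complete control).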
# giant foxtail [2] = assay: Test A postemergence; assay type: in vivo, Setaria faberii
# Summary of the method: as §2
# pigweed = assay: Test C postemergence; assay type: in vivo, Amaranthus retroflexus; conditions: for pest or weed control at 16 g/ha / pest or weed control at 125 g/ha / pest or weed control at 62 g/ha: Amaranthus retroflexus, post-emergence; for pest or weed control at 16 g/ha: read-out: Plant response rating (0 to 100), Pigweed; for pest or weed control at 125 g/ha / pest or weed control at 62 g/ha: read-out: Plant response rating, Pigweed
# Summary of the method: as §1
# kochia = assay: Test C postemergence; assay type: in vivo, Kochia scoparia; conditions: for pest or weed control at 16 g/ha / pest or weed control at 125 g/ha / pest or weed control at 62 g/ha: Bassia scoparia, post-emergence; for pest or weed control at 16 g/ha: read-out: Plant response rating (0 to 100), Kochia; for pest or weed control at 125 g/ha / pest or weed control at 62 g/ha: read-out: Plant response rating, Kochia
# Summary of the method: as §1
# corn = assay: Test A postemergence; assay type: in vivo, Zea mays; conditions: for plant injury at 125 g/ha: read-out: Corn plant response rating
# Summary of the method: as §2
# rice = assay: Test B flooded paddy test; assay type: in vivo, Oryza sativa; conditions: Flood, 250 g ai/ha, 0 to 100 scale where 0 is no effect and 100 is complete control; for plant injury at 250 g/ha: Oryza sativa, read-out: Plant response rating, Rice
# Summary of the method: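 Greenhouse flooded-pot test: compounds dosed into 3 cm standing water over 2-leaf plants, flood held constant. Rated visually after 13–15 days on 0–100 (complete control = 100); a dash marks no test result.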
# morningglory = assay: Test C postemergence; assay type: in vivo, Ipomoea coccinea; conditions: for pest or weed control at 16 g/ha / pest or weed control at 125 g/ha / pest or weed control at 62 g/ha: Ipomoea, post-emergence; for pest or weed control at 16 g/ha: read-out: Plant response rating (0 to 100), Morningglory; for pest or weed control at 125 g/ha / pest or weed control at 62 g/ha: read-out: Plant response rating, Morningglory
# Summary of the method: as §1
# yellow nutsedge = assay: Test C postemergence; assay type: in vivo, Cyperus esculentus; conditions: for pest or weed control at 16 g/ha / pest or weed control at 125 g/ha / pest or weed control at 62 g/ha: Cyperus, post-emergence; for pest or weed control at 16 g/ha: read-out: Plant response rating (0 to 100), Nutsedge, Yellow; for pest or weed control at 125 g/ha / pest or weed control at 62 g/ha: read-out: Plant response rating, Nutsedge, Yellow
# Summary of the method: as §1
# Italian ryegrass = assay: Test C postemergence; assay type: in vivo, Lolium multiflorum; conditions: for pest or weed control at 16 g/ha / pest or weed control at 125 g/ha / pest or weed control at 62 g/ha: Lolium multiflorum, post-emergence; for pest or weed control at 16 g/ha: read-out: Plant response rating (0 to 100), Ryegrass, Italian; for pest or weed control at 125 g/ha / pest or weed control at 62 g/ha: read-out: Plant response rating, Ryegrass, Italian
# Summary of the method: as §1
# [3] = 16 g ai/ha, postemergence, 0 is no effect, 100 is complete control
# [4] = 125 g ai/ha, postemergence, visual rating, scale 0 to 100 (0 no effect, 100 complete control)
# [5] = Postemergence, 62 g ai/ha, scale 0 to 100 (0 no effect, 100 complete control)
# [6] = 0 to 100 scale where 0 is no effect and 100 is complete control
# [7] = Setaria faberi, pre-emergence, 240 h, 125 g ai/ha, 0 to 100 scale where 0 is no effect and 100 is complete control, read-out: Plant response rating, Foxtail, Giant
# [8] = 500 g ai/ha, 0 to 100 scale where 0 is no effect and 100 is complete control
# [9] = Zea mays, post-emergence, 240 h, 125 g ai/ha, 0 to 100 scale where 0 is no effect and 100 is complete control
# [10] = 31 g ai/ha, postemergence, visual rating, scale 0 to 100 (0 no effect, 100 complete control), 13 to 15 days
# [11] = Postemergence, 62 g ai/ha, scale 0 to 100 (0 no effect, 100 complete control), 13 to 15 days
# [12] = 125 g ai/ha, 0 to 100 scale, 0 no effect, 100 complete control
smiles,measurement,setting,value
"N#Cc1cccc(Oc2ncc(Cl)cn2)c1-n1cc(SC(F)(F)F)cn1 [Compound 134, 3-[(5-chloro-2-pyrimidinyl)oxy]-2-[4-(trifluoromethylthio)-1-pyrazolyl]benzonitrile]",pest or weed control at 16 g/ha,wild oat; [3],5%
same,pest or weed control at 125 g/ha,wild oat; [4],10%
same,pest or weed control at 62 g/ha,wild oat; [5],10%
same,"Foxtail, Giant plant response rating",giant foxtail [1]; [6],100
same,pest or weed control at 125 g/ha,giant foxtail [1]; [7],100%
same,"Foxtail, Giant plant response rating","giant foxtail [2]; 125 g ai/ha, 0 to 100 scale where 0 is no effect and 100 is complete control",70
same,"Plant response rating, Foxtail, Giant",giant foxtail [2]; [8],100
same,pest or weed control at 16 g/ha,pigweed; [3],75%
same,pest or weed control at 125 g/ha,pigweed; [4],85%
same,pest or weed control at 62 g/ha,pigweed; [5],85%
same,pest or weed control at 16 g/ha,kochia; [3],75%
same,pest or weed control at 125 g/ha,kochia; [4],95%
same,pest or weed control at 62 g/ha,kochia; [5],95%
same,"Plant response rating, Corn",corn; [8],60
same,plant injury at 125 g/ha,corn; [9],40%
same,plant injury at 250 g/ha,rice,0%
same,pest or weed control at 16 g/ha,morningglory; [3],70%
same,pest or weed control at 125 g/ha,morningglory; [4],95%
same,pest or weed control at 62 g/ha,morningglory; [5],85%
same,pest or weed control at 16 g/ha,yellow nutsedge; [3],0%
same,pest or weed control at 125 g/ha,yellow nutsedge; [4],10%
same,pest or weed control at 62 g/ha,yellow nutsedge; [5],10%
same,pest or weed control at 16 g/ha,Italian ryegrass; [3],10%
same,pest or weed control at 125 g/ha,Italian ryegrass; [4],0%
same,pest or weed control at 62 g/ha,Italian ryegrass; [5],5%
N#Cc1cnn(-c2c(Oc3ncc(F)cn3)cccc2C(F)F)c1 [Compound 240],"Plant response rating (0 to 100), Oat, Wild",wild oat; [3],0
same,"Oat, Wild plant response rating",wild oat; [10],0
same,"Plant response rating, Oat, Wild",wild oat; [4],0
same,"Plant response rating, Oat, Wild",wild oat; [11],0
same,"Foxtail, Giant plant response rating (0 to 100 scale)",giant foxtail [1]; 125 g ai/ha,100
same,"Foxtail, Giant plant response rating",giant foxtail [1]; [6],100
same,"Plant response rating, Foxtail, Giant",giant foxtail [2]; [12],90
same,"Plant response rating, Foxtail, Giant",giant foxtail [2]; [8],100
same,"Plant response rating (0 to 100), Pigweed",pigweed; [3],15
same,Pigweed plant response rating,pigweed; [10],30
same,"Plant response rating, Pigweed",pigweed; [4],75
same,"Plant response rating, Pigweed",pigweed; [11],45
same,"Plant response rating (0 to 100), Kochia",kochia; [3],40
same,Kochia plant response rating,kochia; [10],45
same,"Plant response rating, Kochia",kochia; [4],90
same,"Plant response rating, Kochia",kochia; [11],45
same,"Plant response rating, Corn",corn; [12],30
same,"Plant response rating, Corn",corn; [8],90
same,"Plant response rating, Rice",rice,0
same,"Plant response rating (0 to 100), Morningglory",morningglory; [3],30
same,Morningglory plant response rating,morningglory; [10],65
same,"Plant response rating, Morningglory",morningglory; [4],90
same,"Plant response rating, Morningglory",morningglory; [11],75
same,"Plant response rating (0 to 100), Nutsedge, Yellow",yellow nutsedge; [3],0
same,"Nutsedge, Yellow plant response rating",yellow nutsedge; [10],0
same,"Plant response rating, Nutsedge, Yellow",yellow nutsedge; [4],5
same,"Plant response rating, Nutsedge, Yellow",yellow nutsedge; [11],0
same,"Plant response rating (0 to 100), Ryegrass, Italian",Italian ryegrass; [3],0
same,"Ryegrass, Italian plant response rating",Italian ryegrass; [10],0
same,"Plant response rating, Ryegrass, Italian",Italian ryegrass; [4],0
same,"Plant response rating, Ryegrass, Italian",Italian ryegrass; [11],0
"Fc1cccc(Oc2ncc(Cl)cn2)c1-n1cc(C(F)F)nn1 [Compound 141, 5-chloro-2-[2-[4-(difluoromethyl)-1H-1,2,3-triazol-1-yl]-3-fluorophenoxy]pyrimidine]",pest or weed control at 16 g/ha,wild oat; [3],0%
same,pest or weed control at 125 g/ha,wild oat; [4],30%
same,pest or weed control at 62 g/ha,wild oat; [5],10%
same,pest or weed control at 31 g/ha,"giant foxtail [1]; Setaria faberi, pre-emergence, 240 h, 31 g ai/ha, 0 to 100 scale where 0 is no effect and 100 is complete control, visual, approximately 10 days, read-out: Plant response rating, Foxtail, Giant",100%
same,pest or weed control at 125 g/ha,giant foxtail [1]; [7],100%
same,pest or weed control at 31 g/ha,"giant foxtail [2]; Setaria faberi, post-emergence, 240 h, 31 g ai/ha, 0 to 100 scale, 0 no effect, 100 complete control, read-out: Plant response rating, Foxtail, Giant",90%
same,pest or weed control at 125 g/ha,"giant foxtail [2]; Setaria faberi, post-emergence, 240 h, 125 g ai/ha, 0 to 100 scale where 0 is no effect and 100 is complete control, read-out: Foxtail, Giant plant response rating",100%
same,pest or weed control at 16 g/ha,pigweed; [3],90%
same,pest or weed control at 125 g/ha,pigweed; [4],98%
same,pest or weed control at 62 g/ha,pigweed; [5],100%
same,pest or weed control at 16 g/ha,kochia; [3],100%
same,pest or weed control at 125 g/ha,kochia; [4],100%
same,pest or weed control at 62 g/ha,kochia; [5],100%
same,"Corn plant response rating (crop injury, 0 = no effect, 100 = complete kill) at 31 g/ha","corn; Zea mays, post-emergence, 240 h, 31 g ai/ha, 0 to 100 scale, 0 no effect, 100 complete control",30%
same,plant injury at 125 g/ha,corn; [9],60%
same,plant injury at 250 g/ha,rice,45%
same,pest or weed control at 16 g/ha,morningglory; [3],85%
same,pest or weed control at 125 g/ha,morningglory; [4],100%
same,pest or weed control at 62 g/ha,morningglory; [5],95%
same,pest or weed control at 16 g/ha,yellow nutsedge; [3],10%
same,pest or weed control at 125 g/ha,yellow nutsedge; [4],15%
same,pest or weed control at 62 g/ha,yellow nutsedge; [5],15%
same,pest or weed control at 16 g/ha,Italian ryegrass; [3],0%
same,pest or weed control at 125 g/ha,Italian ryegrass; [4],40%
same,pest or weed control at 62 g/ha,Italian ryegrass; [5],5%
